Assay results: ChEMBL document CHEMBL5550134, “An insight into the pharmacology of cysteine/methionine containing peptide drugs” (Eur J Med Chem, 2024)
Numbered stars: 1 amine (or outer) side, 2 acyl side, 3 side chain; on linkers, the order of the positions; unused ones are H or OH. Bridge positions count the residues as written; N and C are the ends. Square brackets hold non-standard residues; d marks the D form. Peptide text beside a SMILES is read from it. * marks the point of attachment. 2Nal = N[C@@H](Cc1ccc2ccccc2c1)C(=O)O; Benzoyl(4-F) = O=C(c1ccc(F)cc1)*; Cit = NC(=O)NCCC[C@H](N)C(=O)O; X1 = O=C(CCC[*:2])[*:1]

How the values were obtained:
[1] = Half life in human; type: ADME
[2] = Plasma protein binding in human; type: ADME, cell-free; settings: read-out: PPB (converted)
[3] = Half life in human plasma; type: ADME, cell-free
[4] = Half life in iv dosed human; type: ADME, organism-based; settings: in vivo
[5] = Subcutaneous bioavailability in human; settings: in vivo, sc
[6] = Half life in human at 0.5 mg/kg, iv; type: ADME, organism-based; settings: in vivo
[7] = Terminal half life in human; type: ADME; settings: read-out: beta t1/2 (converted)
[8] = Plasma protein binding in human at 0.2 ug/ml; type: ADME, cell-free; settings: at 0.2 µg/mL, read-out: PPB
[9] = Terminal elimination half life in human; type: ADME
[10] = Half life in human at 0.3 mg/kg, iv; type: ADME, organism-based; settings: in vivo
[11] = Oral bioavailability in human; type: ADME, organism-based; settings: in vivo

CC[C@H](C)[C@H](NC(=O)[C@H](CO)NC(=O)[C@H](CC(N)=O)NC(=O)[C@H](CC(C)C)NC(=O)[C@H](Cc1ccc(O)cc1)NC(=O)[C@H](CCCCN)NC(=O)[C@H](CCCCN)NC(=O)[C@@H](NC(=O)[C@H](C)NC(=O)[C@H](CCSC)NC(=O)[C@H](CCC(N)=O)NC(=O)[C@H](CCCCN)NC(=O)[C@H](CCCN=C(N)N)NC(=O)[C@H](CC(C)C)NC(=O)[C@H](CCCN=C(N)N)NC(=O)[C@@H](NC(=O)[C@H](Cc1ccc(O)cc1)NC(=O)[C@H](CC(N)=O)NC(=O)[C@H](CC(=O)O)NC(=O)[C@@H](NC(=O)[C@H](Cc1ccccc1)NC(=O)[C@@H](NC(=O)[C@H](C)NC(=O)[C@H](CC(=O)O)NC(=O)[C@H](CO)NC(=O)[C@@H](N)Cc1c[nH]cn1)C(C)C)[C@@H](C)O)[C@@H](C)O)C(C)C)C(=O)N[C@@H](CC(C)C)C(=O)N[C@@H](CC(N)=O)C(N)=O
half-life [1]: 0.0167 h

N=C(N)NCCC[C@H](NC(=O)[C@@H]1CSSC[C@H](NC(=O)[C@H](Cc2ccc3ccccc3c2)NC(=O)[C@H](CCCNC(=N)N)NC(=O)[C@H](CCCNC(=N)N)NC(=O)c2ccc(F)cc2)C(=O)N[C@@H](Cc2ccc(O)cc2)C(=O)N[C@@H](CCCNC(N)=O)C(=O)N[C@@H](CCCCN)C(=O)N[C@@H](CCCCN)C(=O)N2CCC[C@H]2C(=O)N[C@@H](Cc2ccc(O)cc2)C(=O)N[C@@H](CCCNC(=N)N)C(=O)N[C@@H](CCCNC(N)=O)C(=O)N1)C(N)=O ({Benzoyl(4-F)}-RR[2Nal]CY[Cit]KKPYR[Cit]CR-NH2; disulfide 4-13)
half-life [1]: 2 h
fraction unbound [2]: < 0.01

CC[C@H](C)[C@@H]1NC(=O)[C@H](Cc2ccc(OC)cc2)NC(=O)CCCSC[C@@H](C(=O)N2CCC[C@H]2C(=O)N[C@@H](CC(C)C)C(=O)NCC(N)=O)NC(=O)[C@H](CC(N)=O)NC(=O)[C@H](CCC(N)=O)NC1=O [CARBETOCIN] (Y(Me)IQNCPLG-NH2; linker N-5 via X1)
half-life [3]: 0.667 h

CC(=O)N[C@H](CSSC[C@H](N)C(=O)O)C(=O)N[C@H](C)C(=O)N[C@H](CCCNC(=N)N)C(=O)N[C@H](CCCNC(=N)N)C(=O)N[C@H](CCCNC(=N)N)C(=O)N[C@H](C)C(=O)N[C@H](CCCNC(=N)N)C(N)=O [ETELCALCETIDE]
half-life [4]: 72 h

NC(N)=NCCC[C@@H](N)C(=O)N[C@@H](CCCN=C(N)N)C(=O)N1CCC[C@H]1C(=O)N1C[C@H](O)C[C@H]1C(=O)NCC(=O)N[C@@H](Cc1cccs1)C(=O)N[C@@H](CO)C(=O)N1Cc2ccccc2C[C@@H]1C(=O)N1[C@H](C(=O)N[C@@H](CCCN=C(N)N)C(=O)O)C[C@@H]2CCCC[C@@H]21 [ICATIBANT]
half-life [1]: 1.4 h
subcutaneous bioavailability [5]: 97%

C/C=C1\NC(=O)[C@H]2CSSCC/C=C/[C@H](CC(=O)N[C@H](C(C)C)C(=O)N2)OC(=O)[C@H](C(C)C)NC1=O [ROMIDEPSIN]
half-life [6]: 3 h

CC(=O)N[C@@H](CCCNC(=N)N)C(=O)N[C@H]1CSSC[C@@H](C(N)=O)NC(=O)[C@H](Cc2c[nH]c3ccccc23)NC(=O)[C@H](CCCNC(=N)N)NC(=O)[C@@H](Cc2ccccc2)NC(=O)[C@H](Cc2c[nH]cn2)NC(=O)[C@@H](C)NC1=O [SETMELANOTIDE]
half-life [1]: 11 h
fraction unbound [2]: 0.209

CC[C@H](C)[C@H](NC(=O)[C@H](Cc1ccccc1)NC(=O)[C@H](CC(=O)O)NC(=O)[C@H](CCCNC(=N)N)NC(=O)[C@H](C)NC(=O)[C@H](C)NC(=O)[C@H](CC(C)C)NC(=O)[C@H](CC(N)=O)NC(=O)[C@H](CC(=O)O)NC(=O)[C@H](CC(C)C)NC(=O)[C@@H](NC(=O)[C@@H](NC(=O)[C@H](CC(N)=O)NC(=O)[C@H](CCSC)NC(=O)[C@H](CCC(=O)O)NC(=O)[C@H](CC(=O)O)NC(=O)[C@H](CO)NC(=O)[C@H](Cc1ccccc1)NC(=O)[C@H](CO)NC(=O)CNC(=O)[C@H](CC(=O)O)NC(=O)CNC(=O)[C@@H](N)Cc1c[nH]cn1)[C@@H](C)O)[C@@H](C)CC)C(=O)N[C@@H](CC(N)=O)C(=O)N[C@@H](Cc1c[nH]c2ccccc12)C(=O)N[C@@H](CC(C)C)C(=O)N[C@H](C(=O)N[C@@H](CCC(N)=O)C(=O)N[C@H](C(=O)N[C@@H](CCCCN)C(=O)N[C@H](C(=O)N[C@H](C(=O)N[C@@H](CC(=O)O)C(=O)O)[C@@H](C)O)[C@@H](C)CC)[C@@H](C)O)[C@@H](C)CC [TEDUGLUTIDE]
half-life [7]: 1.3 h
subcutaneous bioavailability [5]: 88%

CC[C@H](C)[C@H](NC(=O)[C@H](CCC(=O)O)NC(=O)[C@H](CO)NC(=O)[C@@H](NC(=O)[C@@H](N)CO)C(C)C)C(=O)N[C@@H](CCC(N)=O)C(=O)N[C@@H](CC(C)C)C(=O)N[C@@H](CCSC)C(=O)N[C@@H](Cc1cnc[nH]1)C(=O)N[C@@H](CC(N)=O)C(=O)N[C@@H](CC(C)C)C(=O)NCC(=O)N[C@@H](CCCCN)C(=O)N[C@@H](Cc1cnc[nH]1)C(=O)N[C@@H](CC(C)C)C(=O)N[C@@H](CC(N)=O)C(=O)N[C@@H](CO)C(=O)N[C@@H](CCSC)C(=O)N[C@@H](CCC(=O)O)C(=O)N[C@@H](CCCN=C(N)N)C(=O)N[C@H](C(=O)N[C@@H](CCC(=O)O)C(=O)N[C@@H](Cc1c[nH]c2ccccc12)C(=O)N[C@@H](CC(C)C)C(=O)N[C@@H](CCCN=C(N)N)C(=O)N[C@@H](CCCCN)C(=O)N[C@@H](CCCCN)C(=O)N[C@@H](CC(C)C)C(=O)N[C@@H](CCC(N)=O)C(=O)N[C@@H](CC(=O)O)C(=O)N[C@H](C(=O)N[C@@H](Cc1cnc[nH]1)C(=O)N[C@@H](CC(N)=O)C(=O)N[C@@H](Cc1ccccc1)C(=O)O)C(C)C)C(C)C [TERIPARATIDE]
half-life [1]: 1 h
subcutaneous bioavailability [5]: 95%

NCCCC[C@H](NC(=O)[C@@H]1CCCN1C(=O)[C@@H]1CSSC[C@H](NC(=O)CNC(=O)CNC(=O)CN)C(=O)N[C@@H](Cc2ccc(O)cc2)C(=O)N[C@@H](Cc2ccccc2)C(=O)N[C@@H](CCC(N)=O)C(=O)N[C@@H](CC(N)=O)C(=O)N1)C(=O)NCC(N)=O [TERLIPRESSIN]
half-life [7]: 0.9 h

CSCC[C@@H]1NC(=O)[C@H](CC(C)C)NC(=O)[C@H](CCCNC(=N)N)NC(=O)[C@H](CO)NC(=O)[C@@H]2CSSC[C@@H]3NC(=O)[C@H](CO)NC(=O)CNC(=O)[C@H]([C@@H](C)O)NC(=O)[C@H](CSSC[C@H](N)C(=O)N[C@@H](CCCCN)C(=O)NCC(=O)N[C@@H](CCCCN)C(=O)NCC(=O)N[C@@H](C)C(=O)N[C@@H](CCCCN)C(=O)N2)NC(=O)[C@H](CSSC[C@@H](C(N)=O)NC(=O)[C@H](CCCCN)NC(=O)CNC(=O)[C@H](CO)NC(=O)[C@H](CCCNC(=N)N)NC3=O)NC(=O)[C@H](CC(=O)O)NC(=O)[C@H](Cc2ccc(O)cc2)NC1=O [ZICONOTIDE]
fraction unbound at 0.2 ug/ml [8]: 0.5

LIXISENATIDE
beta t1/2 [9]: 3 h

NESIRITIDE
t1/2 [10]: 0.3 h

TESAMORELIN
t1/2 [1]: 0.433 h
F [11]: < 4%

VOSORITIDE
t1/2 [1]: 0.35 h
